Like-named read-outs stand apart in the source and are kept apart here.
How the values were obtained:
retinoic acid metabolism = details: racemate versus enantiomers; cited from earlier work
[1] = test system: keratin 10 (K10), keratin 19 (K19) and filaggrin expression in RHE cultures; assay: RHE immunostaining for K10, K19 and filaggrin; details: 0.02% topical, 3 days, immunolabelling
[2] = test system: immortalized human sebocytes SZ95; details: after 9 days; cited from earlier work
[3] = test system: reconstructed human epidermis (RHE); assay: Reconstructed human epidermis (RHE) histology, H and E; format: cell-based; details: 0.02% topical, 3 days at 37° C.
Protocol: RHE tissues were treated with indicated concentration and incubated for 3 days at 37° C. Following treatment tissues were fixed, sectioned and stained with H and E. Representative images from three independent experiments are shown in FIG. 5A to 5E. RHE tissues were untreated (FIG. 5A) or treated with vehicle (ethanol) (FIG. SB), ATRA 0.02% solution (FIG. 5C), 13-CRA 0.02% (FIG. 5D); and VNLG-152 0.02% (FIG. 5E). […] In the figures, “SC” refers to “stratum corneum”, “SG” to “stratum granulosum”, “SS” to “stratum spinosum”, and “SB” to “stratum basale”.

NHAK cells = assay: Anti-proliferative effect of ATRA or 13-CRA alone or combined with low-dose VNLG-152; format: cell-based, human; details: for GI50: Homo sapiens, alone, 0.1 to 10,000 nM, continuous incubation, read-out: GI50, ATRA or 13-CRA alone (Example 2); for fold enhancement of anti-proliferative activity (GI50) by VNLG-152: in combination with 40 nM VNLG-152, NHAK
[4] = test system: adult normal human keratinocytes (NHAKs); assay: Growth inhibition (MTT) of adult normal human keratinocytes; format: cell-based; details: for GI50: Homo sapiens, Keratinocyte; for fold more potent inhibition of growth than 13-CRA (isotretinoin), NHAKs: ratio of GI50 values versus 13-CRA
RARα,β,γ receptors = details: significantly less potent than ATRA; cited from earlier work
[5] = test system: SEB-1 human primary sebocytes; assay: Growth inhibition (MTT) of SEB-1 sebocytes; format: cell-based; details: for GI50: Homo sapiens, 168 h, MTT assay, 7 days treatment; for fold more potent inhibition of growth than 13-CRA (isotretinoin), SEB-1: ratio of GI50 values versus 13-CRA
Protocol: Human adult keratinocytes (pooled) (ZenBio Inc., Research Triangle Park, NC) were cultured in human adult keratinocyte growth medium (KM-2). The SEB-1 human primary sebocytes (ZenBio Inc., Research Triangle Park, NC) were cultured and maintained in sebocyte growth medium. Cells were plated 1 day prior to treatment. Retinamides (VNLG-152 and VNHM-1-73) and other clinically relevant retinoids (13-CRA, 9-CRA, and ATRA) were treated at indicated concentration and time periods and incubated at 37° C. in 5% CO2.
Assays for normal human adult keratinocytes (NHAKs) and human SEB-1 sebocytes growth inhibition were performed as described previously^20. Adult human keratinocytes or sebocytes were treated with VNLG-152,VNHM-1-73 and other retinoids for 7 days. MTT assay was performed at the end of the experiment. Results represent the mean±standard deviation of three independent experiments.

[6] = test system: castration-resistant prostate cancer xenograft; details: in vivo; cited from earlier work
[7] = test system: mTORC1/4E-BP1/p70SK6 signaling; details: cited from earlier work
NHAK = assay: TUNEL (in situ cell death detection) apoptosis assay; format: cell-based, human; details: 72 hours
Protocol: (§1) For acridine orange/ethidium bromide (AO/EB) dual staining assay, keratinocytes were treated with indicated concentrations of the compounds for 24.48 and 72 h. At the end of incubation period, 100 μl of 1:1 ratio of acridine orange (0.1%) and ethidium bromide (0.2%) in PBS were added to the cells and incubated at 37° C. and 5% CO2 for 30 min. Cells were then immediately analyzed using Nikon TE2000 fluorescence microscope. Assessment of the apoptotic potential by in situ Cell Death Detection assay was done as per protocol of the manufacturer (Roche Diagnostics).
The apoptosis inducing potential of VNLG-152 was evaluated by TUNEL assay in NHAK. The individual cell lines as indicated were seeded in 8 well chamber slides, and treated with indicated concentrations and times of 13-CRA, ATRA and VNLG-/152. After 72 hours, the plates were analyzed for TUNEL positive staining. Statistical analysis was performed with ANOVA two factor with replication (*P<0.05, **P<0.01, ***P<0.001).

[8] = test system: triple negative breast cancer (TNBC) tumor; details: in vivo; cited from earlier work
keratinocytes = assay: Acridine orange/ethidium bromide (AO/EB) dual staining apoptosis assay; format: cell-based, human; details: VNLG-152 0.2 μM, 48 and 72 h; versus 13-CRA and ATRA 5 and 10 μM
Protocol: as §1
In FIGS. 3A and 3B, the plates were analyzed for early apoptotic and viable cells using acridine orange/ethidium bromide staining. […] In FIG. 3C, the bars are means of three replicate determinations plus standard deviations. Statistical analysis was performed with ANOVA two factor with replication (*P<0.05, **P<0.01, ***P<0.001).

[9] = read-out: GI50 values in inhibiting NHAKs and sebocytes (range over both cell types)
[10] = 168 h, MTT assay, 7 days treatment, read-out: GI50, growth and proliferation of adult keratinocytes (NHAKs)

COC(=O)/C=C(C)/C=C/C=C(C)/C=C/C1=C(C)C(n2ccnc2)CCC1(C)C (racemic) [(±)-VN-12-1]
fold more potent than either pure (4S)-(+)- or (4R)-(−)- enantiomer (retinoic acid metabolism): up to 28 fold

CC1=C(/C=C/C(C)=C/C=C/C(C)=C/C(=O)O)C(C)(C)CCC1 [ATRA, all-trans-retinoic acid]
expression of K10 and filaggrin in sb and sg layers of RHE [1]: reduced the expression of these proteins
reduction of proliferation of SZ95 sebocytes [2]: approximately 50%
RHE morphology after topical treatment [3]: loss of keratohyalin granules in the upper granular layer
GI50 (NHAK cells): 63.1 µM
fold enhancement of anti-proliferative activity (GI50) by VNLG-152 (NHAK cells): 200 fold

CC1=C(/C=C/C(C)=C\C=C\C(C)=C\C(=O)O)C(C)(C)CCC1 [Compound 9-CRA, 9-cis-retinoic acid]
reduction of proliferation of SZ95 sebocytes [2]: approximately 50%

CC1=C(/C=C/C(C)=C/C=C/C(C)=C\C(=O)O)C(C)(C)CCC1 [Compound 13-CRA, 13-cis-retinoic acid]
reduction of proliferation of SZ95 sebocytes [2]: approximately 50%
RHE morphology after topical treatment [3]: loss of keratohyalin granules in the upper granular layer
GI50 [4, 9]: 26 to 96.5 µM
GI50 (NHAK cells): 75.9 µM
fold enhancement of anti-proliferative activity (GI50) by VNLG-152 (NHAK cells): 123 fold

CC1=C(/C=C/C(C)=C/C=C/C(C)=C/C(=O)O)C(C)(C)CCC1n1ccnc1 (centres unmarked) [VN/14-1]
RAR binding and activation (RARα,β,γ receptors): binds and activates the RARα,β,γ receptors

CC1=C(/C=C/C(C)=C/C=C/C(C)=C\C(=O)NCc2ccc(O)cc2)C(C)(C)CCC1n1ccnc1 (centres unmarked) [VNHM-1-73, (2Z,4E,6E,8E)-9-(3-(1H-imidazol-1-yl)-2,6,6-trimethylcyclohex-1-en-1-yl)-N-(4-hydroxybenzyl)-3,7-dimethylnona-2,4,6,8-tetraenamide]
GI50 [4, 10]: 1.28 µM
fold more potent inhibition of growth than 13-CRA (isotretinoin), NHAKs [4]: 59.3 fold
GI50 [5]: 0.467 µM
fold more potent inhibition of growth than 13-CRA (isotretinoin), SEB-1 [5]: 85 fold

CC1=C(/C=C/C(C)=C/C=C/C(C)=C/C(=O)Nc2ccc(F)cc2)C(C)(C)CCC1n1ccnc1 (centres unmarked) [VNLG-152]
effect on castration-resistant prostate cancer xenograft growth [6]: suppress EMT and castration-resistant prostate cancer xenograft growth
inhibition of mTORC1 signaling [7]: potently inhibits mTORC1/4E-BP1/p70SK6 signaling
expression of K10 and filaggrin in sb and sg layers of RHE [1]: reduced the expression of these proteins
induction of apoptosis versus control (TUNEL) (NHAK; 0.2 μM): ~50%
induction of apoptosis (TUNEL) (NHAK; 1 μM): ~84%
RHE morphology after topical treatment [3]: loss of keratohyalin granules in the upper granular layer
effect on TNBC tumor growth and metastasis [8]: potently inhibits triple negative breast cancer (TNBC) tumor growth and metastasis
GI50 [4, 10]: 0.239 µM
GI50 [4, 9]: 0.066 to 0.239 µM
fold more potent inhibition of growth than 13-CRA (isotretinoin), NHAKs [4]: 317.4 fold
anti-proliferative effect at low dose (NHAK cells; 40 nM VNLG-152 alone, NHAK): < 10%
pro-apoptotic effect, AO/EB dual staining (keratinocytes): strong pro-apoptotic effects
GI50 [5]: 0.066 µM
fold more potent inhibition of growth than 13-CRA (isotretinoin), SEB-1 [5]: 603 fold
times more potent than 13-CRA in reducing the growth of SEB-1 sebocytes ([5]; versus 13-CRA): about 35 times
